# Laboratory results taken from patent US10961187B2, “Substituted N-acetyl-L-cysteine derivatives and related compounds” (Promentis Pharmaceuticals, Inc., priority 2013, dated 2021).
# Tests used:
# [1] = test system: mixed cortical cell cultures containing glial and neuronal cells; assay: In vitro thiol experiment: intracellular cysteine levels; assay type: cell-based, mice; details: 30 minutes; for intracellular cysteine concentration: raw concentration in collected samples
# Method: To further resolve by what process the inhibition of ^14C-cystine uptake is occurring intracellular cysteine levels were determined.
# Mixed cortical cell cultures containing glial and neuronal cells were prepared from fetal (15-16 day gestation) mice as previously described. (Lobner D, “Comparison of the LDH and MTT assays for quantifying cell death: validity for neuronal apoptosis?,” J. Neurosci. Methods, 96(2): 147-152 (Mar. 15, 2000)). Dissociated cortical cells were plated on 24-well plates coated with poly-D-lysine and laminin in Eagles' Minimal Essential Medium (MEM, Earle's salts, supplied glutamine-free) supplemented with 5% heat-inactivated horse serum, 5% fetal bovine serum, 2 mM glutamine and glucose (total 21 mM). Cultures were maintained in humidified 5% CO2 incubators at 37° C. Mice were handled in accordance with a protocol approved by our institutional animal care committee and in compliance with the Public Health service Policy on Humane Care and Use of Laboratory Animals.
# Mixed cortical cell cultures, 14 days in vitro (this allows for a confluent layer of astrocytes to form and the neurons to generate a complex network of axons and dendrites), were washed into bicarbonate buffered salt solution. After 1 hour, 3, 10, 30, 100 μM of Pro-4047 or Pro-4051 was added and the cells were incubated for 30 or 90 minutes, after which the cells were thoroughly washed and the collected in 250 μL of aqueous mobile phase (50 mM citric acid, 10 mM octanesulfonic acid, pH 2.8) was added, after 10 minutes at 37° C. the cells were scraped from the plates and transferred to 1.5 mL tubes for analysis.
# Samples were then sonicated with a Fisher Scientific 60 Sonic Dismembrator. One fraction of this homogenate was analyzed with the Pierce BCA (bicinchoninic acid) method to determine protein concentration. The other fraction was filtered using 3 K molecular weight cutoff, polyethersulfone centrifugal protein filters, and analyzed for thiol content using HPLC (ALF-115 column, 150×1.0 mm, 3 μm C18 [Pro-2023 analysis utilized a Phenomenex Kinetex 2.6 μM, C18, 100 A, 150×2.1 mm and Pro-4047 analysis utilized a Phenomenex Kinetex X-B, C18, 100 A, 2.6 μm, 150×4.4 mm]; mobile phase: 50 mM citric acid, 10 mM octanesulfonic acid, 2% acetonitrile, pH 2.8, 50 μL/min flow rate [Pro-2023 analysis utilized a 100 μL/min flow rate and Pro-4047 analysis utilized 1% acetonitrile and 0.4 mL/min flow rate] with electrochemical detection (Decade II, Au working electrode, Flex Cell HyREF, 0.55V, Antec Leyden, Netherlands [Pro-4047 analysis utilized a Magic Diamond working electrode and 1.8V]).
# When the intracellular thiol assay was initiated, all data was normalized to protein concentration. […] The data presented herein represents the raw cysteine concentrations in the collected samples. […] Pro-4006 at 10 μM increases intracellular cysteine concentration to 0.07 μM at 30 minutes (approximately 3.5 times that of the control; FIG. 11). […] Pro-4047 at 300 μM increases intracellular cysteine concentration to 0.74 μM at 90 minutes (approximately 4.9 times that of the control; FIG. 13). […] Thus, based on the 3 in vitro experiments it is apparent that Pro-2023, Pro-4006, Pro-4011, Pro-4047, Pro-4051 and Pro-4051a behave as effective cysteine prodrugs.
# [2] = biological target: T1, System xc− (Homo sapiens, UniProt Q9UPY5); assay: 14C-cystine uptake in human glial cells from brain astrocytoma (1321N1); assay type: cell-based; details: 1321N1 cells
# T1 construct: in vitro culture system of human glial cells from brain astrocytoma (1321N1); endogenous in cells; host or cells: 1321N1 human astrocytoma cells
# T1 sequence (Q9UPY5 1-501): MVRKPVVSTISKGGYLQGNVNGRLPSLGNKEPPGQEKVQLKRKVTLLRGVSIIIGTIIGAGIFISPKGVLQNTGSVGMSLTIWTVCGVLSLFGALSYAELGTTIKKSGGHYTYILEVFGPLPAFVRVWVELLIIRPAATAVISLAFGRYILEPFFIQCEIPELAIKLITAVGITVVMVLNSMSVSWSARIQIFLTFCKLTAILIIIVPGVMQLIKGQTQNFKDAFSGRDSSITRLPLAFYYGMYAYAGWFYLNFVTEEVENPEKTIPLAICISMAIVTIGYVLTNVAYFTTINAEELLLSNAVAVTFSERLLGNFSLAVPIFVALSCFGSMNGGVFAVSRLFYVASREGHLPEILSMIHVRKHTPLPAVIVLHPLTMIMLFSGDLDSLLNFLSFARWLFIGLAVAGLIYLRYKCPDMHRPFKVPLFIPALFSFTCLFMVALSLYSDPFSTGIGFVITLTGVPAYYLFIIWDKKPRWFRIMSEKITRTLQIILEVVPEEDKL
# T1 sequence (P08195 1-529 partner): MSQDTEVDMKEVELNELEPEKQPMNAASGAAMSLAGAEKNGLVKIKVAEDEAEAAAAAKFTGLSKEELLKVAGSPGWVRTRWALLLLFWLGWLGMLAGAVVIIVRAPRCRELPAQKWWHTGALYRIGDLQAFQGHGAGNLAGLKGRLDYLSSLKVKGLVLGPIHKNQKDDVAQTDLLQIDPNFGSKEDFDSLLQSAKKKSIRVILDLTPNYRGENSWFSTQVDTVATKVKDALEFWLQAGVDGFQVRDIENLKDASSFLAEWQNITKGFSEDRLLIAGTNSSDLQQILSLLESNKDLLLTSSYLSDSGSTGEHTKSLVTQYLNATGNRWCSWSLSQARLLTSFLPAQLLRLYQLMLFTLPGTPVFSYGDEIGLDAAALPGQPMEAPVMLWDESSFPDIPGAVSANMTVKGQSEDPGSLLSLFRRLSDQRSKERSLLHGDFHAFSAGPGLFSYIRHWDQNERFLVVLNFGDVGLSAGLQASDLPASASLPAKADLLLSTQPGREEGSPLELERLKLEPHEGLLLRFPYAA
# Method: The goal of these experiments was to determine ^14C-cystine uptake.
# The screening of compounds was performed using an in vitro culture system of human glial cells from brain astrocytoma (1321N1). Cells were plated on 24 well plates coated with poly-D-lysine and laminin and grown in a balanced salt solution supplemented with 5% heat inactivated horse serum, 5% fetal bovine serum, 2 mM glutamine and glucose (total 21 mM). Cultures were maintained in humidified 5% CO2 incubators at 37° C. for 3-4 days before experiments were performed, at this time the cultures has formed a single confluent layer. For experiments, cultures were washed 3 times into a Na-free HEPES and HCO3^− buffered balanced salt solution. After 1 hour, the test compounds are added. Following a three hour incubation, ^14C-cystine (0.025 mCi/mL) was then added for 20 minutes. Following the ^14C-cystine exposure, cultures were washed 3 times with ice cold HEPES buffered saline solution and dissolved in 250 μl sodium dodecyl sulfate (0.1%). An aliquot (200 μl) was removed and added to scintillation fluid for counting. Values were normalized to ^14C-cystine uptake in untreated controls on the same experimental plate.
# [3] = biological target: T1, System xc−; assay: 3H-glutamate release from human glial cells from brain astrocytoma (1321N1); assay type: cell-based; details: 1321N1 cells
# Method: This assay also uses the cell culture system of human glial cells from brain astrocytoma (1321N1) described above. Initially, cells are washed with HBBSS, and ^3H-glutamate is added (PerkinElmer: 1 mCi/mL stock solution is diluted (30 μL+500 HBBSS) and 10 μL of diluted radiolabel is added to each well). Following a 1 hour incubation to load the cells with the labeled glutamate, the cells are washed again with HBBSS, and the drug is added. At 30, 90, and 180 minutes, 50 μL of extracellular media is sampled from each well and is measured using a Beckman LS 6500 scintillation counter.
# [4] = test system: Rats; assay: Elevated-plus maze; assay type: in vivo; details: 10 mg/kg PO
# Method: Rats were tested in a standard elevated plus maze; testing occurred in a dimly illuminated room using only two lights mounted over the maze. Animals were allowed to habituate to the room for at least one hour prior to treatment. One hour prior to testing, rats received a compound of the present invention (0-30 mg/kg, P.O.). For testing, the rat was placed in the elevated plus maze for five minutes, alternating the starting position between facing an open arm and facing a closed arm. The session was recorded and an observer blind to treatment recorded the number of explorations, entries and time spent in the open arm. Explorations were defined as the rat placing two feet into an open arm without fully entering said arm. Entries were defined as the rat placing all four feet in an open arm. Time of entry in the open arm was recorded from the time the rat placed four feet in the open arm until two of the rats' feet entered the open square.
SMILES,"intracellular cysteine, times that of the control ([1]; 10 μM compound)",intracellular cysteine concentration ([1]; 10 μM compound),"decrease in 14C-cystine uptake ([2]; 30 μM (most effective concentration), three hour incubation)","increase in 3H-glutamate release ([3]; 30 μM, at 30 minutes)","increase in 14C-cystine uptake ([2]; 100 μM (most effective concentration), three hour incubation)","increase in 3H-glutamate release ([3]; 100 μM, at 3 hours)","intracellular cysteine, times that of the control ([1]; 100 μM compound)",intracellular cysteine concentration ([1]; 100 μM compound),increase of time on the open arms over control [4],"time spent on the open arms ([4]; one hour prior to testing, five minute session)",inhibition of 14C-cystine uptake (in words) ([2]; 3 hour incubation),"increase in 3H-glutamate release ([3]; 1000 μM, at 30 minutes)"
"CC(=O)N[C@@H](CSC(C)(C)c1ccccc1)C(N)=O [Pro-4006, (2R)-2-Acetamido-3-[(2-phenylpropan-2-yl)sulfanyl]propanamide]",approximately 3.5 times,0.07 µM,approximately 45%,35%,–,–,–,–,–,–,–,–
"O=C(SC[C@H]1C(=O)NCC(=O)N1Cc1ccccc1)c1ccccc1 [Pro-4011, (6R)-6-[(benzoylsulfanyl)methyl]-1-benzylpiperazine-2,5-dione]",approximately 1.16 times,0.138 µM,–,–,approximately 75%,75%,–,–,–,–,–,–
"CC(=O)N[C@@H](CSC(=O)c1ccc(C)cc1)C(N)=O [Pro-4051a, (2R)-2-acetamido-3-(4-methylbenzoylsulfanyl)propanamide]",–,–,–,–,–,–,approximately 3 times,0.21 µM,not a significant increase over control,around 22 seconds,did not produce a substantial inhibition,approximately 180%
